These results are taken from patent US20260049072A1, “HETEROCYCLIC COMPOUND FOR INDUCING DEGRADATION OF MUTANT KRAS PROTEIN” (Astellas Pharma Inc., priority 2022, published 2026).

One assay deals with PA-TU-8902 cells. In words: Non-anchorage-dependent cell growth inhibition (spheroid 3D culture), PA-TU-8902. Type of assay: cell-based, human. As to conditions: Homo sapiens, PaTu 8902, 144 h; KRAS G12V mutant-positive, 3D spheroid, six days, CellTiter-Glo 2.0; read-out: PA-TU-8902 IC50. The procedure: Test Example 3: Evaluation of Non-Anchorage-Dependent Cell Growth Inhibitory Activity on Human KRAS G12V Mutant-Positive Pancreatic Cancer Line PA-TU-8902, Human KRAS G12D Mutant-Positive Pancreatic Cancer Line AsPC-1 or Human KRAS G12C Mutant-Positive Pancreatic Cancer Line MIA PaCa-2
The non-anchorage-dependent cell growth inhibitory activities of subject compounds were evaluated by spheroid 3D cell culture.
PA-TU-8902 cells, AsPC-1 cells or MIA PaCa-2 cells (RIKEN BRC, RCB2094) were seeded at 36 µL/well on a low-cell-adhesive round bottom 384-well plate (Prime Surface: from Sumitomo Bakelite) to give 5×10^2 cells per well. The PA-TU-8902 cells were under the same conditions as in Test Example 1-1, and the AsPC-1 cells were under the same conditions as in Test Example 1-2. For the MIA PaCa-2 cells, RPMI-1640 medium containing 10% fetal bovine serum was used in the presence of 5% CO2 at 37° C.
The next day, the subject compounds (6-9 points having final concentrations in the range of 3 μM to 0.3 nM) and DMSO, which was the solvent for the subject compounds, as a negative control were diluted 100-fold with a fresh medium and were each added at 4 μL per well. After culturing in the presence of 5% CO2 at 37° C. for six days, CellTiter-Glo 2.0 (from Promega) was added at 20 μL per well. After stirring with a plate mixer (from FINEPCR) at normal temperature for an hour, the luminescent signals were measured with ARVO X3 (from PerkinElmer).
With the signaling value in treatment with DMSO taken as 0% inhibition and with the signaling value in the medium alone without cells taken as 100% inhibition, the 50% inhibition values (IC50) were calculated by Sigmoid-Emax model nonlinear regression analysis.
(In general: ATP-based viability assays read luminescence as a measure of living cells.)
The term IC50 denotes the concentration that gives 50% inhibition. As for `CO[C@@H](C)COc1nc(NC2CN(C(=O)OCCN(C)C)C2)c2cc(C3CC3)c(-c3c(C)c(F)cc4[nH]ncc34)c(OCc3ccc(-c4cn([C@H](C(=O)N5C[C@H](O)C[C@H]5C(=O)N[C@@H](CO)c5ccc(-c6scnc6C)cc5)C(C)C)nn4)cc3)c2n1` (atropisomer, axis not shown; (M)) [Example 34, 2-(dimethylamino)ethyl 3-({(7M)-6-cyclopropyl-7-(6-fluoro-5-methyl-H-indazol-4-yl)-8-{[4-(1-{(2S)-1-[(2S,4R)-4-hydroxy-2-({(1R)-2-hydroxy-1-[4-(4-methyl-1,3-thiazol-5-yl)phenyl]ethyl}carbamoyl)pyrrolidin-1-yl]-3-methyl-1-oxobutan-2-yl}-1H-1,2,3-triazol-4-yl)phenyl]methoxy}-2-[(2S)-2-methoxypropoxy]quinazolin-4-yl}amino)azetidine-1-carboxylate], the IC50 was 109 nM. Consider `CO[C@@H](C)COc1nc(NC2CN(C(=O)O[C@H]3C[C@@H](N(C)C)C3)C2)c2cc(C3CC3)c(-c3c(C)c(F)cc4[nH]ncc34)c(OCc3ccc(-c4cn([C@H](C(=O)N5C[C@H](O)C[C@H]5C(=O)N[C@@H](CO)c5ccc(-c6scnc6C)nc5)C(C)C)nn4)cc3)c2n1` (atropisomer, axis not shown) [Example 3], for which the IC50 was 160 nM. Take `COC(C)(C)COc1cc(OC2CN(C(=O)N[C@H]3C[C@@H](N(C)C)C3)C2)c2cc(C3CC3)c(-c3c(C)c(F)cc4[nH]ncc34)c(OCc3ccc(-c4cn([C@H](C(=O)N5C[C@H](O)C[C@H]5C(=O)N[C@@H](CO)c5ccc(-n6cncn6)cc5)C(C)C)nn4)cc3)c2n1` (atropisomer, axis not shown) [Example 10]: the IC50 was 69 nM. For the molecule `Cc1ncsc1-c1ccc([C@H](CO)NC(=O)[C@@H]2C[C@@H](O)CN2C(=O)[C@H](C(C)C)n2cc(-c3ccc(COc4c(-c5c(C)c(F)cc6[nH]ncc56)c(C5CC5)cc5c(N6CC(C#N)C6)nc(OC[C@@H]6CCN(C)C6)nc45)cc3)nn2)cc1` [Example 38], the IC50 turned out to be 177 nM.

For `CC[C@H](C)[C@@H](C(=O)N1C[C@H](O)C[C@H]1C(=O)N[C@@H](CO)c1ccc(-c2scnc2C)cc1)n1cc(-c2ccc(COc3c(-c4c(C)c(F)cc5[nH]ncc45)c(C4CC4)cc4c(O[C@H]5CCN(C(=O)NCCN(C)C)C5)nc(OC[C@H](C)OC)nc34)cc2)nn1` (single isomer, unassigned) [Example 28], the 50% inhibitory concentration (IC50) came to 159 nM. Consider `Cc1ncsc1-c1ccc([C@H](CO)NC(=O)[C@@H]2C[C@@H](O)CN2C(=O)[C@H](C(C)C)n2cc(-c3ccc(COc4c(-c5c(C)c(F)cc6[nH]ncc56)c(C5CC5)cc5c(OC6CN(C(=O)NCCO)C6)nc(OC6CCOCC6)nc45)cc3)nn2)cc1` [Example 16], for which the IC50 was found to be 261 nM. As for `CO[C@@H](C)COc1nc(NC2CN(C(=O)N3CCN(C)CC3)C2)c2cc(C3CC3)c(-c3c(C)c(F)cc4[nH]ncc34)c(OCc3ccc(-c4cn([C@H](C(=O)N5C[C@H](O)C[C@H]5C(=O)N[C@@H](CO)c5ccc(-n6cncn6)cc5)C(C)C)nn4)cc3)c2n1` (atropisomer, axis not shown) [Example 27], the IC50 amounted to 122 nM. As for `CO[C@@H](C)COc1cc(OC2CN(C(=O)N3CC[C@@H](N(C)C)C3)C2)c2cc(C3CC3)c(-c3c(C)c(F)cc4[nH]ncc34)c(OCc3ccc(-c4cn([C@H](C(=O)N5C[C@H](O)C[C@H]5C(=O)N[C@@H](CO)c5ccc(-n6cncn6)cc5)C(C)C)nn4)cc3)c2n1` (atropisomer, axis not shown) [Example 7], the IC50 is 81 nM. For the molecule `CO[C@@H](C)COc1cc(OC2CN(C(=O)N3CC(CN(C)C)C3)C2)c2cc(C3CC3)c(-c3c(C)c(F)cc4[nH]ncc34)c(OCc3ccc(-c4cn([C@H](C(=O)N5C[C@H](O)C[C@H]5C(=O)N[C@@H](CO)c5ccc(N6CCOC6=O)cc5)C(C)C)nn4)cc3)c2n1` (atropisomer, axis not shown) [Example 8], the concentration for half-maximal inhibition (IC50) came to 102 nM. For `Cc1ncsc1-c1ccc([C@H](CCO)NC(=O)[C@@H]2C[C@@H](O)CN2C(=O)[C@H](C(C)C)n2cc(-c3ccc(COc4c(-c5c(C)c(F)cc6[nH]ncc56)c(C5CC5)cc5c(NC6CN(C(=O)NCCN(C)C)C6)nc(OC6CCOCC6)nc45)cc3)nn2)cc1` [Example 39, (4R)-1-[(2S)-2-(4-{4-[({(7M)-6-cyclopropyl-4-[(1-{[2-(dimethylamino)ethyl]carbamoyl}azetidin-3-yl)oxy]-7-(6-fluoro-5-methyl-1H-indazol-4-yl)-2-[(oxan-4-yl)oxy]quinazolin-8-yl}oxy)methyl]phenyl}-1H-1,2,3-triazol-1-yl)-3-methylbutanoyl]-4-hydroxy-N-{(1S)-3-hydroxy-1-[4-(4-methyl-1,3-thiazol-5-yl)phenyl]propyl}-L-prolinamide], the IC50 was 52 nM. `Cc1ncsc1-c1ccc([C@H](CO)NC(=O)[C@@H]2C[C@@H](O)CN2C(=O)[C@H](C(C)C)n2cc(-c3ccc(COc4c(-c5c(C)c(F)cc6[nH]ncc56)c(C5CC5)cc5c(OC6CN(C(=O)NCCN(C)C)C6)nc(OC6CCN(CC(F)F)CC6)nc45)cc3)nn2)cc1` (atropisomer, axis not shown) [Example 31]: the IC50 was 67 nM. The same measure, in the same setting: in the case of `CO[C@@H](C)COc1nc(N(C)C2CN(C(=O)CCCN(C)C)C2)c2cc(C3CC3)c(-c3c(C)c(F)cc4[nH]ncc34)c(OCc3ccc(-c4cn([C@H](C(=O)N5C[C@H](O)C[C@H]5C(=O)N[C@@H](CO)c5ccc(-c6scnc6C)cc5)C(C)C)nn4)cc3)c2n1` (atropisomer, axis not shown) [Example 24] it was 125 nM; in that of `CO[C@@H](C)COc1nc(OC2CN(C(=O)NCCN3CCCC3)C2)c2cc(C3CC3)c(-c3c(C)c(F)cc4[nH]ncc34)c(OCc3ccc(-c4cn([C@H](C(=O)N5C[C@H](O)C[C@H]5C(=O)N[C@@H](CO)c5ccc(-c6scnc6C)cc5)C(C)C)nn4)cc3)c2n1` (atropisomer, axis not shown) [Example 22], 65 nM.

In the case of `Cc1c(F)cc2[nH]ncc2c1-c1c(C2CC2)cc2c(NC3CN(C(=O)NCCN(C)C)C3)nc(OC[C@@H]3CCCO3)nc2c1OCc1ccc(-c2cn([C@H](C(=O)N3C[C@H](O)C[C@H]3C(=O)N[C@@H](CO)c3ccc(-n4cncn4)cc3)C(C)C)nn2)cc1` (atropisomer, axis not shown) [Example 32], the IC50 came to 105 nM. As to `CO[C@@H](C)COc1nc(N2CC[C@H]2C(N)=O)c2cc(C3CC3)c(-c3c(C)c(F)cc4[nH]ncc34)c(OCc3ccc(-c4cn([C@H](C(=O)N5C[C@H](O)C[C@H]5C(=O)N[C@@H](CN(C)C)c5ccc(-c6scnc6C)cc5)C(C)C)nn4)cc3)c2n1` (atropisomer, axis not shown) [Example 37], the IC50 came to 78 nM.

`Cc1ncsc1-c1ccc([C@H](CO)NC(=O)[C@@H]2C[C@@H](O)CN2C(=O)[C@H](C(C)C)n2cc(-c3ccc(COc4c(-c5c(C)c(F)cc6[nH]ncc56)c(C5CC5)cc5c(OC6CN(C(=O)NCCN(C)C)C6)nc(OCC(C)(C)CN(C)C)nc45)cc3)nn2)cc1` [Example 36]: the IC50 turned out to be 143 nM.

As for `Cc1c(F)cc2[nH]ncc2c1-c1c(C2CC2)cc2c(OC3CN(C(=O)NCCN(C)C)C3)nc(OC3CCOCC3)nc2c1OCc1ccc(-c2cn([C@H](C(=O)N3C[C@H](O)C[C@H]3C(=O)N[C@@H](CO)c3ccc(-n4cccn4)cc3)C(C)C)nn2)cc1` [Example 30], the IC50 amounted to 235 nM. Same read-out and setting: next, `Cc1ncsc1-c1ccc([C@H](CO)NC(=O)[C@@H]2C[C@@H](O)CN2C(=O)[C@H](C(C)C)n2cc(-c3ccc(COc4c(-c5c(C)c(F)cc6[nH]ncc56)c(C5CC5)cc5c(N(C)C6CN(C(=O)O[C@H]7CCN(C)C7)C6)nc(OC6CCOCC6)nc45)cc3)nn2)cc1` (atropisomer, axis not shown) [Example 33]: 103 nM.

The same assay, now with this note: KRAS G12V mutant-positive, 3D spheroid, six days, CellTiter-Glo 2.0; read-out: PA-TU-8902 IC50.
Regarding `CO[C@@H](C)COc1cc(OC2CN(C(=O)NCCN(C)C)C2)c2cc(C3CC3)c(-c3c(C)c(F)cc4[nH]ncc34)c(OCc3ccc(-c4cn([C@H](C(=O)N5C[C@H](O)C[C@H]5C(=O)N[C@@H](CO)c5ccc(-c6scnc6C)cc5)C(C)C)nn4)cc3)c2n1` [Example 43, (4R)-1-[(2S)-2-(4-{4-[({(7M)-6-cyclopropyl-4-[(1-{[2-(dimethylamino)ethyl]carbamoyl}azetidin-3-yl)oxy]-7-(6-fluoro-5-methyl-1H-indazol-4-yl)-2-[(2S)-2-methoxypropoxy]quinolin-8-yl}oxy)methyl]phenyl}-1H-1,2,3-triazol-1-yl)-3-methylbutanoyl]-4-hydroxy-N-{(1R)-2-hydroxy-1-[4-(4-methyl-1,3-thiazol-5-yl)phenyl]ethyl}-L-prolinamide], the IC50 came to 61 nM.
